Results taken from the supplement of paper PMC10307832.

Legend:
Assay in all cases: relative viability (nuclei count vs DMSO), 5 days (fraction); higher = more cells survive
[1] = compound: C[C@]12O[C@H](C[C@]1(O)CO)n1c3ccccc3c3c4c(c5c6ccccc6n2c5c31)CNC4=O [Lestaurtinib] + CC1(C)CCC(c2ccc(Cl)cc2)=C(CN2CCN(c3ccc(C(=O)NS(=O)(=O)c4ccc(N[C@H](CCN5CCOCC5)CSc5ccccc5)c(S(=O)(=O)C(F)(F)F)c4)cc3)CC2)C1 [Navitoclax] (partner 0.5 µM)
Outline: (§1)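 Nuclei were stained with Hoechst during a one-step fixation (final 0.05% Triton X-100, 1% formaldehyde, 1 ug/ml Hoechst) carried out 5 days after dosing, then counted on 4× images. The cells, lung cancer lines in 1536-well plates, had been dosed by pin tool the day after seeding with one drug alone or a fixed anchor-drug dose plus five library-drug doses (not always all listed) in √10 steps. Relative viability is the nuclei count in treated wells divided by that in vehicle wells, and each value is the median of duplicate plates.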

Lestaurtinib + Foretinib = compound: C[C@]12O[C@H](C[C@]1(O)CO)n1c3ccccc3c3c4c(c5c6ccccc6n2c5c31)CNC4=O [Lestaurtinib] + COc1cc2c(Oc3ccc(NC(=O)C4(C(=O)Nc5ccc(F)cc5)CC4)cc3F)ccnc2cc1OCCCN1CCOCC1 [Foretinib] (partner 0.25 µM)
Outline: as §1

Lestaurtinib + Dasatinib = compound: C[C@]12O[C@H](C[C@]1(O)CO)n1c3ccccc3c3c4c(c5c6ccccc6n2c5c31)CNC4=O [Lestaurtinib] + Cc1nc(Nc2ncc(C(=O)Nc3c(C)cccc3Cl)s2)cc(N2CCN(CCO)CC2)n1 [Dasatinib] (partner 0.075 µM)
Outline: as §1

[2] = compound: C[C@]12O[C@H](C[C@]1(O)CO)n1c3ccccc3c3c4c(c5c6ccccc6n2c5c31)CNC4=O [Lestaurtinib] + Nc1nc2[nH]cc(CCc3ccc(C(=O)N[C@@H](CCC(=O)O)C(=O)O)cc3)c2c(=O)[nH]1 [Pemetrexed] (partner 0.2 µM)
Outline: as §1

Cell Line	relative viability ([1]; first compound 0.005 µM)	relative viability ([1]; first compound 0.01581 µM)	relative viability ([1]; first compound 0.05 µM)	relative viability ([1]; first compound 0.1581 µM)	relative viability ([1]; first compound 0.5 µM)	relative viability (Lestaurtinib + Foretinib; first compound 0.005 µM)	relative viability (Lestaurtinib + Foretinib; first compound 0.01581 µM)	relative viability (Lestaurtinib + Foretinib; first compound 0.05 µM)	relative viability (Lestaurtinib + Foretinib; first compound 0.1581 µM)	relative viability (Lestaurtinib + Foretinib; first compound 0.5 µM)	relative viability (Lestaurtinib + Dasatinib; first compound 0.005 µM)	relative viability (Lestaurtinib + Dasatinib; first compound 0.01581 µM)	relative viability (Lestaurtinib + Dasatinib; first compound 0.05 µM)	relative viability (Lestaurtinib + Dasatinib; first compound 0.1581 µM)	relative viability (Lestaurtinib + Dasatinib; first compound 0.5 µM)	relative viability ([2]; first compound 0.005 µM)	relative viability ([2]; first compound 0.01581 µM)	relative viability ([2]; first compound 0.05 µM)	relative viability ([2]; first compound 0.1581 µM)	relative viability ([2]; first compound 0.5 µM)
LK-2	1.01	0.838	0.673	0.374	0.169	1.16	1.19	0.683	0.774	0.309	0.296	0.255	0.241	0.275	0.158	0.302	0.444	0.255	0.302	0.139
LOU-NH91	0.698	0.583	0.438	0.371	0.272	0.921	0.842	0.844	0.651	0.459	0.581	0.575	0.415	0.397	0.372	0.413	0.509	0.448	0.583	0.338
LU99A	0.707	0.72	0.373	0.378	0.211	0.733	0.73	0.575	0.469	0.247	0.518	0.528	0.387	0.298	0.215	0.152	0.153	0.217	0.14	0.128
LXF-289	0.93	0.986	0.742	0.707	0.161	1.02	1.04	0.827	0.905	0.198	0.21	0.275	0.146	0.154	0.0882	0.872	0.931	0.631	0.771	0.21
NCI-H23	0.862	0.84	0.918	0.784	0.422	1.02	1.22	0.837	0.635	0.321	0.856	0.911	0.739	0.847	0.483	0.622	0.787	0.503	0.449	0.292
NCI-H322M	1.28	0.977	0.563	0.463	0.461	0.935	1.02	0.523	0.609	0.45	0.233	0.279	0.277	0.293	0.339	0.599	0.606		0.592	0.445
NCI-H441	0.48	0.575	0.571	0.448	0.313	1.07	1.02	0.795	0.933	0.277	0.521	0.58	0.431	0.548	0.482	0.272	0.258	0.238	0.277	0.285
NCI-H460	1.37	1.01	0.694	0.894	0.544	0.96	1.11	0.951	1.28	0.9	0.505	0.583	0.505	0.388	0.247	0.0559	0.0645	0.0633	0.0509	0.0531
